Data as given in patent publication US5416081A, “Cephalosporin compounds” (Lucky Limited, priority 1992, dated 1995).
Values after ≈ are worked out from the molar mass of the structure shown. Read-outs that look alike come from different tables or passages of the source.

Columns and labels:
Type in all cases: cell-based
S. aureus/6538pA = test: MIC against standard strain by two-fold agar dilution, S. aureus/6538pA; conditions: Staphylococcus aureus
Method: (§1) These MIC values were taken by employing a two-fold dilution method: that is, two-fold serial dilutions of each of the test compounds were made and dispersed in a Muller-Hinton agar medium; 2 μl of the standard test strain which had the 10^7 CFU(Colony Forming Unit) per ml was inoculated on the medium; and these were incubated at 37° C. for 20 hours.

S. aureus/giorigio = test: MIC against standard strain by two-fold agar dilution, S. aureus/giorigio; conditions: Staphylococcus aureus
Method: as §1

E. cloacae/1194E = test: MIC against standard strain by two-fold agar dilution, E. cloacae/1194E; conditions: Enterobacter cloacae; E. cloacae/1194E; Muller-Hinton agar, 37° C., 20 hours; read-out: MIC
Method: as §1

K. aerogenes/1776E = test: MIC against standard strain by two-fold agar dilution, K. aerogenes/1776E; conditions: Klebsiella aerogenes; K. aerogenes/1776E; Muller-Hinton agar, 37° C., 20 hours; read-out: MIC
Method: as §1

S. typhimunium/14028A = test: MIC against standard strain by two-fold agar dilution, S. typhimunium/14028A; conditions: S. typhimunium/14028A; Muller-Hinton agar, 37° C., 20 hours; read-out: MIC
Method: as §1

E. coli TEM1/1193E = test: MIC against standard strain by two-fold agar dilution, E. coli TEM1/1193E; conditions: Escherichia coli, 20 h
Method: as §1

E. coli TEM5/3739E = test: MIC against standard strain by two-fold agar dilution, E. coli TEM5/3739E; conditions: Escherichia coli, 20 h
Method: as §1

A. calcoaceticus /15473A = test: MIC against standard strain by two-fold agar dilution, A. calcoaceticus /15473A; conditions: Acinetobacter calcoaceticus; A. calcoaceticus /15473A; Muller-Hinton agar, 37° C., 20 hours; read-out: MIC
Method: as §1

E. coli TEM9/2639E = test: MIC against standard strain by two-fold agar dilution, E. coli TEM9/2639E; conditions: Escherichia coli, 20 h
Method: as §1

P. aeruginosa/1912E = test: MIC against standard strain by two-fold agar dilution, P. aeruginosa/1912E; conditions: Pseudomonas aeruginosa; P. aeruginosa/1912E; Muller-Hinton agar, 37° C., 20 hours; read-out: MIC
Method: as §1

E. coli/3190Y = test: MIC against standard strain by two-fold agar dilution, E. coli/3190Y; conditions: Escherichia coli; E. coli/3190Y; Muller-Hinton agar, 37° C., 20 hours; read-out: MIC
Method: as §1

P. aeruginosa/6065Y = test: MIC against standard strain by two-fold agar dilution, P. aeruginosa/6065Y; conditions: Pseudomonas aeruginosa; P. aeruginosa/6065Y; Muller-Hinton agar, 37° C., 20 hours; read-out: MIC
Method: as §1

E. coli/10536 = test: MIC against standard strain by two-fold agar dilution, E. coli/10536; conditions: Escherichia coli
Method: as §1

S. marcescens/1826E = test: MIC against standard strain by two-fold agar dilution, S. marcescens/1826E; conditions: Serratia marcescens; S. marcescens/1826E; Muller-Hinton agar, 37° C., 20 hours; read-out: MIC
Method: as §1

P. aeruginosa/10145 = test: MIC against standard strain by two-fold agar dilution, P. aeruginosa/10145; conditions: Pseudomonas aeruginosa; P. aeruginosa/10145; Muller-Hinton agar, 37° C., 20 hours; read-out: MIC
Method: as §1

S. aureus/77 = test: MIC against standard strain by two-fold agar dilution, S. aureus/77; conditions: Staphylococcus aureus
Method: as §1

[1] = S. aureus/77, Muller-Hinton agar, 37° C., 20 hours, read-out: MIC
[2] = S. aureus/6538pA, Muller-Hinton agar, 37° C., 20 hours, read-out: MIC
[3] = S. aureus/giorigio, Muller-Hinton agar, 37° C., 20 hours, read-out: MIC
[4] = E. coli/10536, Muller-Hinton agar, 37° C., 20 hours, read-out: MIC

SMILES	MIC (S. aureus/6538pA; 20 h)	MIC (S. aureus/giorigio; 20 h)	MIC (E. cloacae/1194E)	MIC (K. aerogenes/1776E)	MIC (S. typhimunium/14028A)	MIC (E. coli TEM1/1193E)	MIC (E. coli TEM5/3739E)	MIC (A. calcoaceticus /15473A)	MIC (E. coli TEM9/2639E)	MIC (P. aeruginosa/1912E)	MIC (E. coli/3190Y)	MIC (P. aeruginosa/6065Y)	MIC (E. coli/10536; 20 h)	MIC (S. marcescens/1826E)	MIC (P. aeruginosa/10145)	MIC (S. aureus/77; [1])	MIC (S. aureus/6538pA; [2])	MIC (S. aureus/giorigio; [3])	MIC (E. coli/10536; [4])	MIC (S. aureus/77; 20 h)
CC(C)(O/N=C(\C(=O)NC1C(=O)N2C(C(=O)[O-])=C(CSc3nc(N)c4c([n+]3N)CCC4)CSC12)c1csc(N)n1)C(=O)O (stereo not drawn) [Compound I-1, 7-[(Z)-2-(2-aminothiazol-4-yl)-2-(2-carboxyprop-2-oxyimino)acetamido]-3-(1,4-diamino-1,5,6,7-tetrahydro-cyclopentapyrimidinium-2-yl)thiomethyl-3-cephem-4-carboxylate]	2 µg/mL (≈ 3.08 µM)	1 µg/mL (≈ 1.54 µM)	4 µg/mL (≈ 6.16 µM)	0.13 µg/mL (≈ 0.2 µM)	0.13 µg/mL (≈ 0.2 µM)	0.063 µg/mL (≈ 0.097 µM)	0.25 µg/mL (≈ 0.385 µM)	2 µg/mL (≈ 3.08 µM)	2 µg/mL (≈ 3.08 µM)	0.5 µg/mL (≈ 0.77 µM)	0.016 µg/mL (≈ 0.0246 µM)	4 µg/mL (≈ 6.16 µM)	0.063 µg/mL (≈ 0.097 µM)	0.25 µg/mL (≈ 0.385 µM)	1 µg/mL (≈ 1.54 µM)	4 µg/mL (≈ 6.16 µM)	–	–	–	–
C[n+]1c(SCC2=C(C(=O)[O-])N3C(=O)C(NC(=O)/C(=N\OC(C)(C)C(=O)O)c4csc(N)n4)C3SC2)nc(N)c2c1CCC2 (stereo not drawn) [Compound I-2, 7-[(Z)-2-(2-aminothiazol-4-yl)-2-(2-carboxyprop-2-oxyimino)acetamido]-3-(4-amino-1-methyl-1,5,6,7-tetrahydro-cyclopentapyrimidinium-2-yl)thiomethyl-3-cephem-4-carboxylate]	–	–	4 µg/mL (≈ 6.17 µM)	0.13 µg/mL (≈ 0.2 µM)	0.25 µg/mL (≈ 0.385 µM)	0.13 µg/mL (≈ 0.2 µM)	0.5 µg/mL (≈ 0.771 µM)	1 µg/mL (≈ 1.54 µM)	2 µg/mL (≈ 3.08 µM)	0.5 µg/mL (≈ 0.771 µM)	0.063 µg/mL (≈ 0.0971 µM)	4 µg/mL (≈ 6.17 µM)	–	0.5 µg/mL (≈ 0.771 µM)	1 µg/mL (≈ 1.54 µM)	–	2 µg/mL (≈ 3.08 µM)	1 µg/mL (≈ 1.54 µM)	0.13 µg/mL (≈ 0.2 µM)	8 µg/mL (≈ 12.3 µM)
Nc1nc(/C(=N/OCC(=O)O)C(=O)NC2C(=O)N3C(C(=O)[O-])=C(CSc4nc(N)c5c([n+]4N)CCC5)CSC23)cs1 (stereo not drawn) [Compound I-8, 7-[(Z)-2-(2-aminothiazol-4-yl)-2-(1-carboxymeth-1-oxyimino)acetamido]-3-(1,4-diamino-1,5,6,7-tetrahydro-cyclopentapyrimidinium-2-yl)thiomethyl-3-cephem-4-carboxylate]	–	–	8 µg/mL (≈ 12.9 µM)	0.25 µg/mL (≈ 0.402 µM)	0.25 µg/mL (≈ 0.402 µM)	0.28 µg/mL (≈ 0.45 µM)	2 µg/mL (≈ 3.22 µM)	4 µg/mL (≈ 6.43 µM)	2 µg/mL (≈ 3.22 µM)	1 µg/mL (≈ 1.61 µM)	0.063 µg/mL (≈ 0.101 µM)	4 µg/mL (≈ 6.43 µM)	–	0.13 µg/mL (≈ 0.209 µM)	1 µg/mL (≈ 1.61 µM)	4 µg/mL (≈ 6.43 µM)	2 µg/mL (≈ 3.22 µM)	2 µg/mL (≈ 3.22 µM)	0.016 µg/mL (≈ 0.0257 µM)	–
CO/N=C(\C(=O)NC1C(=O)N2C(C(=O)[O-])=C(CSc3nc(N)c4c([n+]3N)CCC4)CSC12)c1csc(N)n1 (stereo not drawn) [Compound I-10, 7-[(Z)-2-(2-aminothiazol-4-yl)-2-(methoxyimino)acetamido]-3-(1,4-diamino-1,5,6,7-tetrahydro-cyclopentapyrimidinium-2-yl)thiomethyl-3-cephem-4-carboxylate]	0.25 µg/mL (≈ 0.433 µM)	–	16 µg/mL (≈ 27.7 µM)	0.5 µg/mL (≈ 0.866 µM)	0.25 µg/mL (≈ 0.433 µM)	0.016 µg/mL (≈ 0.0277 µM)	0.25 µg/mL (≈ 0.433 µM)	4 µg/mL (≈ 6.92 µM)	0.5 µg/mL (≈ 0.866 µM)	2 µg/mL (≈ 3.46 µM)	0.016 µg/mL (≈ 0.0277 µM)	16 µg/mL (≈ 27.7 µM)	–	0.25 µg/mL (≈ 0.433 µM)	4 µg/mL (≈ 6.92 µM)	0.13 µg/mL (≈ 0.225 µM)	–	–	0.016 µg/mL (≈ 0.0277 µM)	–
